# Data taken from ChEMBL document CHEMBL4342516, “Discovery of Membrane-Bound Pyrophosphatase Inhibitors Derived from an Isoxazole Fragment” (ACS Med Chem Lett, 2020).
# Active and inactive are the calls of the source. The calls are words filed in the database; no cut-off is given here.
# Test system: Thermotoga maritima
# Assay: Inhibition of Thermotoga maritima membrane bound pyrophosphatase at 100 uM using sodium pyrophosphate as substrate preincubated for 5 mins followed by substrate addition and measured after 5 mins by spectrophotometry relative to control
# Details: not given
row,Compound,inhibition [%]
1,O=c1[nH]c2ccc(S(=O)(=O)CCO)cc2o1,> 50
2,Nc1ccc(S(=O)(=O)N2CCCC2C(=O)O)cc1 (stereo not given),> 50
3,CCOC(=O)c1ccc(S(=O)(=O)NC2=NC(=O)CS2)cc1,> 50
4,O=C(O)c1cc(-c2ccccc2[N+](=O)[O-])on1,> 50

# Test system: not listed separately
# Assay: Inhibition of Thermotoga maritima membrane bound pyrophosphatase at 100 uM using sodium pyrophosphate as substrate preincubated for 5 mins followed by substrate addition and measured after 5 mins by spectrophotometry
# Details: not given
row,Compound,IC50
1,O=C(O)c1cc(-c2ccc([N+](=O)[O-])cc2)[nH]n1,Not Active
2,CC(C)(C)c1cc(C(=O)NCC(=O)O)cc(C(C)(C)C)c1,Not Active
3,CC(C)(C)c1cc(CCC(=O)O)cc(C(C)(C)C)c1,Not Active
4,Cc1cc(C)cc(-c2cc(C(=O)Nc3ccccc3Br)no2)c1,Not Active
5,Cc1c(-c2cc(C(=O)O)no2)cnn1C,Not Active

# Same assay, conditions: read-out: IC50
row,Compound,IC50 [µM]
1,Cc1cccc(-c2cc(C(=O)Oc3ccccc3Br)no2)c1,6.1
2,CC(C)(C)c1cccc(-c2cc(C(=O)Oc3ccccc3Br)no2)c1,6.7
3,CC(C)(C)c1cc(C(=O)Nc2nccs2)cc(C(C)(C)C)c1,39
4,O=C(O)c1cc(-c2ccccc2)n[nH]1,130
5,O=C(O)c1csc(-c2ccc([N+](=O)[O-])cc2)n1,80
6,Cc1nc(-c2cc(C(=O)Oc3ccccc3Br)no2)cs1,460
7,O=C(Oc1ccccc1Br)c1cnc(-c2ccccc2)s1,48
8,O=c1[nH]c2ccc(S(=O)(=O)CCO)cc2o1,43
9,Cc1cc(C)cc(-c2cc(C(=O)Oc3ccccc3Br)no2)c1,6.9
10,O=C(O)c1cnc(-c2ccccc2)s1,29
11,Cc1cc(C)cc(-c2cc(C(=O)Oc3ccccc3)no2)c1,26
12,Nc1ccc(S(=O)(=O)N2CCCC2C(=O)O)cc1 (stereo not given),110
13,CC(C)(C)c1cc(C(=O)NCCCn2ccnc2)cc(C(C)(C)C)c1,210
14,CC(C)(C)c1cc(-c2cc(C(=O)Oc3ccccc3Br)no2)cc(C(C)(C)C)c1,10
15,Cc1nc(-c2cc(C(=O)O)no2)cs1,17
16,CCOC(=O)c1ccc(S(=O)(=O)NC2=NC(=O)CS2)cc1,120
17,O=C(O)c1cc(-c2ccccc2[N+](=O)[O-])on1,71
18,CC(C)(C)c1cc(C(=O)Nc2ccccc2Br)cc(C(C)(C)C)c1,47
19,CCOC(=O)c1cc(-c2cc(C(C)(C)C)cc(C(C)(C)C)c2)on1,72
20,CC(C)(C)c1cc(C(=O)Nc2nc3ccccc3s2)cc(C(C)(C)C)c1,91
21,CC(C)(C)c1cc(C(=O)Nc2ccc([N+](=O)[O-])cc2)cc(C(C)(C)C)c1,100
22,CC(C)(C)c1cc(C(=O)Nc2ccc(S(N)(=O)=O)cc2)cc(C(C)(C)C)c1,47
23,CCOC(=O)c1cc(-c2ccc(OC)c(S(=O)(=O)Nc3cccc4c3OCO4)c2)on1,36

# Test system: not listed separately
# Assay: (§1) Inhibition of Plasmodium falciparum 3D7 pyrophosphatase-VP1 expressed in baculovirus infected insect cells using sodium pyrophosphate as substrate preincubated for 5 mins followed by substrate addition and measured after 10 mins by spectrophotometry
# Details: not given
row,Compound,IC50 [µM]
1,Cc1cc(C)cc(-c2cc(C(=O)Oc3ccccc3Br)no2)c1,55

# Test system: Plasmodium falciparum
# Assay: as §1
# Details: not given
row,Compound,inhibition
1,CC(C)(C)c1cc(-c2cc(C(=O)Oc3ccccc3Br)no2)cc(C(C)(C)C)c1,inactive

# Test system: Plasmodium falciparum
# Assay: Antiplasmodial activity against Plasmodium falciparum 3D7 infected in human erythrocytes assessed as growth inhibition after 72 hrs by SYBR Gren-I fluorescent dye based method
# Assay type: functional, organism-based
# Details: 3D7, 72 h
row,Compound,IC50 [µM]
1,Cc1cc(C)cc(-c2cc(C(=O)Oc3ccccc3Br)no2)c1,99
